In patent US20050197350A1, “Novel quinoline, tetrahydroquinazoline, and pyrimidine derivatives and methods of treatment related to the use thereof” (TAISHO PHARMACEUTICAL CO., LTD., priority 2003, published 2005):

test system: MCH receptors; assay: MCH receptor activity class (method not given); details: MCH receptor activity class 1-3 (percent of control at 10^-7 M or IC50)

Compound | class
COc1ccc(NC(=S)N[C@H]2CC[C@@H](Nc3cc(N(C)C)c4ccccc4n3)CC2)c(C)c1 [compound 2296] | 3 (Class 3 The value of percent of control at 10^−7 M was more than 60% or the value of IC50 was more than 200 nM.)
Cc1cccc(C(C)C)c1NC(=O)NC[C@H]1CC[C@@H](Nc2nccc(N(C)C)n2)CC1 [compound 2425] | 1 (Class 1: The value of percent of control at 10^−7 M was less than 40% or the value of IC50 was less than 50 nM.)
Cc1ccc([N+](=O)[O-])c(NC(=O)NC[C@H]2CC[C@@H](Nc3cc(N(C)C)c4ccccc4n3)CC2)c1C [compound 2397] | 3 (Class 3 The value of percent of control at 10^−7 M was more than 60% or the value of IC50 was more than 200 nM.)

same assay, conditions: MCH receptor; class by percent of control at 10^-7 M or IC50

Compound | class
CN(C)c1nc(N[C@H]2CC[C@@H](NC(=S)NCCc3ccc(Cl)cc3)CC2)nc2c1CCCC2 [compound 1998] | 3 (Class 3 The value of percent of control at 10^−7 M was more than 60% or the value of IC50 was more than 200 nM.)
CN(C)c1nc(N[C@H]2CC[C@@H](NC(=S)Nc3ccc([N+](=O)[O-])cc3)CC2)nc2c1CCCC2 [compound 1953] | 3 (Class 3 The value of percent of control at 10^−7 M was more than 60% or the value of IC50 was more than 200 nM.)
CN(C)c1nc(N[C@H]2CC[C@@H](NC(=S)NCc3ccc(Cl)cc3Cl)CC2)nc2c1CCCC2 [compound 2032] | 3 (Class 3 The value of percent of control at 10^−7 M was more than 60% or the value of IC50 was more than 200 nM.)
CC(C)c1cccc(C(C)C)c1NC(=S)N[C@H]1CC[C@@H](Nc2nc3c(c(N(C)C)n2)CCCC3)CC1 [compound 2002] | 3 (Class 3 The value of percent of control at 10^−7 M was more than 60% or the value of IC50 was more than 200 nM.)
CN(C)c1nc(N[C@H]2CC[C@@H](NC(=S)Nc3cccc(Br)c3)CC2)nc2c1CCCC2 [compound 1929] | 3 (Class 3 The value of percent of control at 10^−7 M was more than 60% or the value of IC50 was more than 200 nM.)
C/C(=C\c1ccccc1)C(=O)N[C@H]1CC[C@@H](Nc2cc(N(C)C)c3ccccc3n2)CC1 [compound 87] | 3 (Class 3 The value of percent of control at 10^−7 M was more than 60% or the value of IC50 was more than 200 nM.)

same assay, conditions: activity class 1-3: percent of control at 10^-7 M or IC50

Compound | class
CN(C)c1nc(N[C@H]2CC[C@@H](NC(=O)OCc3ccccc3Cl)CC2)nc2c1CCCC2 [compound 1596] | 3 (Class 3 The value of percent of control at 10^−7 M was more than 60% or the value of IC50 was more than 200 nM.)

same assay, conditions: activity class per percent of control at 10^-7 M or IC50

Compound | class
COc1ccc(C(=O)N[C@H]2CC[C@@H](Nc3nc4c(c(N(C)C)n3)CCCC4)CC2)cc1OCc1ccccc1 [compound 1026] | 1 (Class 1: The value of percent of control at 10^−7 M was less than 40% or the value of IC50 was less than 50 nM.)
CCOc1cc(CN[C@H]2CC[C@@H](Nc3cc(N(C)C)c4ccccc4n3)CC2)ccc1OC [compound 1097] | 3 (Class 3 The value of percent of control at 10^−7 M was more than 60% or the value of IC50 was more than 200 nM.)
Cc1c(C(=O)N[C@H]2CC[C@@H](Nc3nc4c(c(N(C)C)n3)CCCC4)CC2)cc(-c2ccccc2)n1CCSCc1c(F)cccc1Cl [compound 1028, 1-{2-[(2-chloro-6-fluorobenzyl)thio]ethyl}-N-(cis-4-{[4-(dimethy-lamino)-5,6,7,8-tetrahydroquinazolin-2-yl]amino}-cyclohexyl)-2-methyl-5-phenyl-1H-pyrrole-3-carboxamide] | 2 (Class 2: The value of percent of control at 10^−7 M was from 40% to 60% or the value of IC′50 was from 50 nM to 200 nM.)
C[C@H](NC(=O)c1ccccc1C(=O)N[C@H]1CC[C@@H](Nc2nc3c(c(N(C)C)n2)CCCC3)CC1)c1ccccc1 [compound 1034] | 3 (Class 3 The value of percent of control at 10^−7 M was more than 60% or the value of IC50 was more than 200 nM.)

same assay, conditions: class 1-3 by percent of control at 10^-7 M or IC50

Compound | class
Cc1cc(C(=O)N[C@H]2CC[C@@H](Nc3nc4c(c(N(C)C)n3)CCCC4)CC2)c(C(F)(F)F)o1 [compound 506] | 2 (Class 2: The value of percent of control at 10^−7 M was from 40% to 60% or the value of IC′50 was from 50 nM to 200 nM.)
CN(C)c1ccnc(N[C@H]2CC[C@@H](CNC(=O)c3cc(Cl)sc3Cl)CC2)n1 [compound 428] | 3 (Class 3 The value of percent of control at 10^−7 M was more than 60% or the value of IC50 was more than 200 nM.)
CN(C)c1nc(N[C@H]2CC[C@@H](CNC(=O)c3ccc(Cl)cc3)CC2)nc2c1CCCC2 [compound 587] | 3 (Class 3 The value of percent of control at 10^−7 M was more than 60% or the value of IC50 was more than 200 nM.)

same assay, conditions: class by percent of control at 10^-7 M or IC50

Compound | class
C[C@H](C(=O)N[C@H]1CC[C@@H](Nc2nccc(N(C)C)n2)CC1)c1ccc(-c2ccccc2)c(F)c1 [compound 880] | 3 (Class 3 The value of percent of control at 10^−7 M was more than 60% or the value of IC50 was more than 200 nM.)
COc1ccc(CNC[C@H]2CC[C@@H](Nc3nc4c(c(N(C)C)n3)CCCC4)CC2)c(OC)c1 [compound 1373] | 3 (Class 3 The value of percent of control at 10^−7 M was more than 60% or the value of IC50 was more than 200 nM.)
CN(C)c1ccnc(N[C@H]2CC[C@@H](NC(=O)CCCOc3ccccc3)CC2)n1 [compound 338] | 3 (Class 3 The value of percent of control at 10^−7 M was more than 60% or the value of IC50 was more than 200 nM.)
CCOc1ccccc1NC(=O)N[C@H]1CC[C@@H](Nc2nc3c(c(N(C)C)n2)CCCC3)CC1 [compound 1712] | 2 (Class 2: The value of percent of control at 10^−7 M was from 40% to 60% or the value of IC′50 was from 50 nM to 200 nM.)
CN(C)c1nc(N[C@H]2CC[C@@H](NC(=O)Nc3cccc(C(F)(F)F)c3)CC2)nc2c1CCCC2 [compound 1838] | 3 (Class 3 The value of percent of control at 10^−7 M was more than 60% or the value of IC50 was more than 200 nM.)
CN(C)c1ccnc(N[C@H]2CC[C@@H](NC(=O)c3c(F)c(F)c(F)c(F)c3F)CC2)n1 [compound 348] | 3 (Class 3 The value of percent of control at 10^−7 M was more than 60% or the value of IC50 was more than 200 nM.)
Cc1cc(Cl)ccc1NC(=S)N[C@H]1CC[C@@H](Nc2nc3c(c(N(C)C)n2)CCCC3)CC1 [compound 1766, N-(4-chloro-2-methylphenyl)-N′-(cis-4-{[4-(dimethylamino)-5,6,7,8-tetrahydroquinazolin-2-yl]amino}cyclohexyl)thiourea] | 1 (Class 1: The value of percent of control at 10^−7 M was less than 40% or the value of IC50 was less than 50 nM.)
CN(C)c1nc(N[C@H]2CC[C@@H](NC(=O)NCc3ccc(F)cc3)CC2)nc2c1CCCC2 [compound 1725] | 2 (Class 2: The value of percent of control at 10^−7 M was from 40% to 60% or the value of IC′50 was from 50 nM to 200 nM.)
Cc1ccc(CNC[C@H]2CC[C@@H](Nc3nccc(N(C)C)n3)CC2)cc1 [compound 1307] | 3 (Class 3 The value of percent of control at 10^−7 M was more than 60% or the value of IC50 was more than 200 nM.)
CN(C)c1cc(N[C@H]2CC[C@@H](CNCc3ccc(OCc4ccc(Br)cc4)cc3)CC2)nc2ccccc12 [compound 1203] | 3 (Class 3 The value of percent of control at 10^−7 M was more than 60% or the value of IC50 was more than 200 nM.)
COc1ccc(NC(=O)N[C@H]2CC[C@@H](Nc3cc(N(C)C)c4ccccc4n3)CC2)cc1Cl [compound 2151] | 3 (Class 3 The value of percent of control at 10^−7 M was more than 60% or the value of IC50 was more than 200 nM.)
CN(C)c1cc(N[C@H]2CC[C@@H](NC(=O)Nc3c(Cl)cccc3C(F)(F)F)CC2)nc2ccccc12 [compound 2103] | 3 (Class 3 The value of percent of control at 10^−7 M was more than 60% or the value of IC50 was more than 200 nM.)
CN(C)c1ccnc(N[C@H]2CC[C@@H](NC(=O)c3cccc(Br)c3)CC2)n1 [compound 239] | 1 (Class 1: The value of percent of control at 10^−7 M was less than 40% or the value of IC50 was less than 50 nM.)

same assay, conditions: class by percent of control at 10^−7 M or IC50

Compound | class
Cc1cc(N(C)C)nc(NC[C@H]2CC[C@@H](NC(=O)c3cc(Cl)cc(Cl)c3)CC2)n1 [compound 2748] | 2 (Class 2: The value of percent of control at 10^−7 M was from 40% to 60% or the value of IC′50 was from 50 nM to 200 nM.)
CCc1cccc(C(=O)N[C@H]2CC[C@@H](Nc3ncc(C)c(N(C)C)n3)CC2)c1 [compound 2925, N-(cis-4-{[4-(dimethylamino)-5-methylpyrimidin-2-yl]amino}cyclohexyl)-3-ethylbenzamide] | 1 (Class 1: The value of percent of control at 10^−7 M was less than 40% or the value of IC50 was less than 50 nM.)
Cc1cnc(N[C@H]2CC[C@@H](C(=O)N[C@H](C)c3ccc(Cl)cc3)CC2)nc1N(C)C [compound 2778, cis-N-[(1R)-1-(4-chlorophenyl)ethyl]-4-{[4-(dimethylamino)-5-methylpyrimidin-2-yl]amino}cyclohexanecarboxamide] | 1 (Class 1: The value of percent of control at 10^−7 M was less than 40% or the value of IC50 was less than 50 nM.)
COc1ccc(C(=O)N[C@H]2CC[C@@H](CNc3ncc(C)c(N(C)C)n3)CC2)cc1 [compound 2715] | 3 (Class 3 The value of percent of control at 10^−7 M was more than 60% or the value of IC50 was more than 200 nM.)
Cc1cc(N(C)C)nc(N[C@H]2CC[C@@H](CNC(=O)c3cccc(OC(F)(F)F)c3)CC2)n1 [compound 2759] | 3 (Class 3 The value of percent of control at 10^−7 M was more than 60% or the value of IC50 was more than 200 nM.)
Cc1cc(N(C)C)nc(N[C@H]2CC[C@@H](NC(=O)c3ccc(F)cc3)CC2)n1 [compound 2990, N-(cis-4-{[4-(dimethylamino)-6-methylpyrimidin-2-yl]amino}cyclohexyl)-4-fluorobenzamide] | 1 (Class 1: The value of percent of control at 10^−7 M was less than 40% or the value of IC50 was less than 50 nM.)
Cc1cc(C(=O)N[C@H]2CC[C@@H](Nc3nc(C)c(C)c(N(C)C)n3)CC2)no1 [compound 2828, N-(cis-4-{[4-(dimethylamino)-5,6-dimethylpyrimidin-2-yl]amino}cyclohexyl)-5-methylisoxazole-3-carboxamide] | 2 (Class 2: The value of percent of control at 10^−7 M was from 40% to 60% or the value of IC′50 was from 50 nM to 200 nM.)
